Measurements taken from US6528275B1, “Substrates and inhibitors of proteolytic enzymes” (Peptide Therapeutics Limited, priority 1996, dated 2003).
Non-standard residues stand in square brackets, D forms with d. Residues, ends and D or L forms follow the SMILES beside them. Tyr(3-NO2) = N[C@@H](Cc1ccc(O)c([N+](=O)[O-])c1)C(=O)O; 3Pal = N[C@@H](Cc1cccnc1)C(=O)O; hLeu = CC(C)CC[C@H](N)C(=O)O; Ac6c = NC1(C(=O)O)CCCCC1; Nle = CCCC[C@H](N)C(=O)O; Ac5c = NC1(C(=O)O)CCCC1; 2Abz = Nc1ccccc1C(=O)O

target: T1, Der pI (Dermatophagoides pteronyssinus, UniProt P08176); test: Der pI substrate assay with FRET peptides (fluorescence, Km, kcat/Km); assay type: biochemical, house dust mite; conditions: purified Der pI; peptides SEQ ID Nos. 1-76; read-out: Measured Km
T1 construct: tissue SmithKline-Beecham, U.K (crude mite extract); host or cells: crude house dust mite extract
T1 sequence (P08176 99-320): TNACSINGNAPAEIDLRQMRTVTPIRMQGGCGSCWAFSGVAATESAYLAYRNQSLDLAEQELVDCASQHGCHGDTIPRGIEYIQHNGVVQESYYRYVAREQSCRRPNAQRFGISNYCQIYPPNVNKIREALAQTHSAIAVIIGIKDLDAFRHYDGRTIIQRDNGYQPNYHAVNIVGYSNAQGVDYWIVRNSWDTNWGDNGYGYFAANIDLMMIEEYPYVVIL
Method: (§1) Using the general techniques described above, the following compounds were prepared and assayed as potential substrates against Der pI purified as described above.
(§2) Each mixture of 20 compounds in the libraries of the apparatus described herein was screened at a concentration of 1.0 μM per compound in an assay against the cysteinyl protease Der pI.
(§3) Plate assays were carried out in 96 well plate format, using 0.1 ug of Der pI per 100 μL assay volume in each well and using 20 μM of the substrate. All assays were performed in Assay Buffer (AB; 50 mM potassium phosphate, pH 8.25 containing 1 mM ethylenediaminetetraacetic acid (EDTA) and 1 mM dithiothreitol (DTT). The Der pI enzyme is pre-activated by addition of DTT and this in incubated at room temperature for 5 min. prior to initiation of the assay. As an example for the screening methodology, each well contains a 5 μL of a 20 μM solution of the test compound in DMSO, 10 μL of a 200 μM aqueous solution of the substrate, 2, and 85 μL of Der pI in AB is added to initiate the reaction. Enzyme activity is monitored by fluorescence using 320 nm for excitation and 420 nm for the emission wavelengths using a Labsystems Fluroskan Ascent machine. Kinetic measurements were carried out using a Hitachi F-4500 Fluorescence Spectrophotometer.

Molecule | Km [µM]
CC(C)CC[C@H](NC(=O)[C@H](C)NC(=O)[C@H](Cc1cccnc1)NC(=O)c1ccccc1N)C(=O)N[C@@H](CO)C(=O)N[C@@H](Cc1ccc(O)c([N+](=O)[O-])c1)C(=O)N[C@@H](CC(=O)O)C(N)=O [Abz-3pyr-Ala-hLeu-Ser-Tyr(NO2)-Asp-NH2] (H-[2Abz][3Pal]A[hLeu]S[Tyr(3-NO2)]D-NH2) | > 10
CC(C)CC[C@H](NC(=O)[C@H](C)NC(=O)[C@H](CCCCN)NC(=O)c1ccccc1N)C(=O)N[C@@H](CO)C(=O)N[C@@H](Cc1ccc(O)c([N+](=O)[O-])c1)C(=O)N[C@@H](CC(=O)O)C(N)=O [Abz-Lys-Ala-hLeu-Ser-Tyr(NO2)-Asp-NH2] (H-[2Abz]KA[hLeu]S[Tyr(3-NO2)]D-NH2) | > 15
Abz-Bip-Ala-hLeu-Abu-Tyr(NO2)-Asp-NH2 | 1.7
CC(C)[C@H](NC(=O)c1ccccc1N)C(=O)N[C@@H](C)C(=O)N[C@@H](Cc1c[nH]cn1)C(=O)N[C@@H](CO)C(=O)N[C@@H](Cc1ccc(O)c([N+](=O)[O-])c1)C(=O)N[C@@H](CC(=O)O)C(N)=O [Abz-Val-Ala-His-Ser-Tyr(NO2)-Asp-NH2] (H-[2Abz]VAHS[Tyr(3-NO2)]D-NH2) | > 20

target: T1, Der pI; test: as above; assay type: biochemical, house dust mite; set-up: key: NS-Not Substrate: Not hydrolysed by Der pI; NM-Substrate but not measured: Substrate for Der pI but not measured; conditions: purified Der pI; peptides SEQ ID Nos. 77-85
Method: as §1, §2, §3

Molecule | substrate or not substrate for Der pI (symbols in Measured Km)
Bz-Val-Ala-Statine-Ser-eAha-NH2 | NS
Abz-Val-(NMe)Ala-Nle-Ser-Tyr(NO2)-Asp-NH2 | NS
Abz-Val-Ala-Aib-Ser-Tyr(NO2)-Asp-NH2 | NS
Abz-Val-Aib-Nle-Ser-Tyr(NO2)-Asp-NH2 | NS
Abz-p.Aba-Nle-Ser-Tyr(NO2)-Asp-NH2 | NS
Abz-Val-Ala-(NMe)Nle-Ser-Tyr(NO2)-Asp-NH2 | NS
Abz-Deg-Ala-Nle-Ser-Tyr(NO2)-Asp-NH2 | NS
Abz-Cmpi-Nle-Ser-Tyr(NO2)-Asp-NH2 | NS
nBu-D.Ser-D.Nle-D.Ala-D.Val-p.Aba-NH2 | NS

target: T1, Der pI; test: as above; assay type: biochemical, house dust mite; set-up: key: NS indicates that the peptide was not hydrolysed by Der pI.; NM indicated that the peptide was a substrate for Der pI, but the Km was not measured.; NM^a indicates that the peptide was a substrate for Der pI, and its cleavage was followed by HPLC-MS showing hydrolysis to occur between-Nle-Ser-; conditions: purified Der pI; peptides SEQ ID Nos. 1-76
Method: as §1, §2, §3

Molecule | substrate or not substrate for Der pI (symbols in Measured Km)
CC(C)[C@H](NC(=O)c1ccccc1N)C(=O)N[C@@H](C)C(=O)NC1(C(=O)N[C@@H](CO)C(=O)N[C@@H](Cc2ccc(O)c([N+](=O)[O-])c2)C(=O)N[C@@H](CC(=O)O)C(N)=O)CCCC1 [Abz-Val-Ala-ACP-Ser-Tyr(NO2)-Asp-NH2] (H-[2Abz]VA[Ac5c]S[Tyr(3-NO2)]D-NH2) | NS
CCCC[C@H](NC(=O)[C@H](C)NC(=O)[C@@H](NC(C)=O)C(C)C)C(=O)N[C@@H](CO)C(=O)N[C@@H](Cc1ccc(O)c([N+](=O)[O-])c1)C(N)=O [Ac-Val-Ala-Nle-Ser-Tyr(NO2)-NH2] (Ac-VA[Nle]S[Tyr(3-NO2)]-NH2) | NS
CC(C)CC[C@H](NC(=O)[C@H](C)NC(=O)C1(NC(=O)c2ccccc2N)CCCCC1)C(=O)N[C@@H](CO)C(=O)N[C@@H](Cc1ccc(O)c([N+](=O)[O-])c1)C(=O)N[C@@H](CC(=O)O)C(N)=O [Abz-ACH-Ala-hLeu-Ser-Tyr(NO2)-Asp-NH2] (H-[2Abz][Ac6c]A[hLeu]S[Tyr(3-NO2)]D-NH2) | NS
CCCC[C@H](NC(=O)[C@H](C)N)C(=O)N[C@@H](CO)C(=O)N[C@@H](Cc1ccc(O)c([N+](=O)[O-])c1)C(=O)N[C@@H](CC(=O)O)C(N)=O [H-Ala-Nle-Ser-Tyr(NO2)-Asp-NH2] (H-A[Nle]S[Tyr(3-NO2)]D-NH2) | NS
Abz-2.Naph-Val-Ala-Nle-Ser-Tyr(NO2)-Asp-NH2 | NM
CCCC[C@H](NC(=O)c1ccccc1N)C(=O)N[C@@H](CO)C(=O)N[C@@H](Cc1ccc(O)c([N+](=O)[O-])c1)C(=O)N[C@@H](CC(=O)O)C(N)=O [Abz-Nle-Ser-Tyr(NO2)-Asp-NH2] (H-[2Abz][Nle]S[Tyr(3-NO2)]D-NH2) | NS
